# Experimental data published in patent US20250134889A1, “TARGETING IRE1 KINASE AND FMRP FOR PROPHYLAXIS, MANAGEMENT AND TREATMENT OF ATHEROSCLEROSIS” (CEDARS-SINAI MEDICAL CENTER, priority 2022, published 2025).
# Tested on: BMDM
# Test: In vitro efferocytosis
# Type: cell-based, mouse
# Excerpt: FIGS. 3A-3G depict that FMRP-deficiency increases efferocytosis in vivo. (For all images scale bar=50 μm; Red: Macrophages, Green: AC/AC-1, Violet: AC-2. Data are mean±SEM. Unpaired t-test with Welch's correction. * P≤0.05, ** P≤0.01, *** P≤0.001.) • 3A-3E. In vitro and in vivo efferocytosis experiments, where percentage of macrophages F4/80^+ (red) that ingested apoptotic cells (AC) labeled with carboxyfluorescein succinimidyl ester (CFSE)^+ (green) were reported as % efferocytosis. • 3A. BMDMs were transfected with Fmr1- or control-siRNA and incubated CFSE-labeled AC for the indicated hours (n=4). • 3B. Fmr1^+/+ and Fmr1^−/− BMDMs were treated with PA (500 μM) for 6 hours and then incubated with CFSE-labeled ACs for 4 hours (n=4). • 3C. Fmr1^+/+ and Fmr1^−/− mice were fed WD (16 weeks) and injected intraperitoneally with CFSE-labeled AC (1.5 hours), followed by PM elicitation (n=4-5). • 3D. BMDM were pre-treated either with vehicle (DMSO) or AMG-18 (5 μM) for 1 hour then incubated with CFSE-labeled ACs for 4 hours (n=4). • 3E. […] In vitro continuous efferocytosis experiments, where macrophages were stained for F4/80^+ (red), AC were labeled with CFSE (AC-1; green) or Violet (AC2; violet). % continuous efferocytosis was determined by the ratio of F4/80^+, CFSE^+ and Violet^+ (triple positive) cells to total F4/80^+/+ and CFSE^+ (double positive) cells. • 3F. […]
structure (smiles),measurement,setting,value
Cc1ccc2c(NS(=O)(=O)c3ccccc3Cl)cccc2c1Oc1ncccc1-c1ccnc(N[C@H]2CCCNC2)n1 [AMG-18],continued efferocytosis of ACs,"AMG-18 5 μM 1 hour, AC-1 2 hours then AC-2 2 hours",enhanced
same,efferocytosis of ACs,"CFSE-labeled ACs, AMG-18 5 μM 1 hour then ACs 4 hours, siRNA transfected BMDM",increased
